Where a name gives a salt, the structure may show the parent alone.
Tests used:
Type in all cases: cell-based
hOX2R [1] = target: T1, hOX2R (Homo sapiens, UniProt O43614); experiment: Intracellular calcium measurements using division-arrested cells, OX2; details: agonist orexin B at 2×EC50, * = single experiment, otherwise average of at least two, read-out: pIC50 OX2 (converted)
T1 sequence (O43614 1-444): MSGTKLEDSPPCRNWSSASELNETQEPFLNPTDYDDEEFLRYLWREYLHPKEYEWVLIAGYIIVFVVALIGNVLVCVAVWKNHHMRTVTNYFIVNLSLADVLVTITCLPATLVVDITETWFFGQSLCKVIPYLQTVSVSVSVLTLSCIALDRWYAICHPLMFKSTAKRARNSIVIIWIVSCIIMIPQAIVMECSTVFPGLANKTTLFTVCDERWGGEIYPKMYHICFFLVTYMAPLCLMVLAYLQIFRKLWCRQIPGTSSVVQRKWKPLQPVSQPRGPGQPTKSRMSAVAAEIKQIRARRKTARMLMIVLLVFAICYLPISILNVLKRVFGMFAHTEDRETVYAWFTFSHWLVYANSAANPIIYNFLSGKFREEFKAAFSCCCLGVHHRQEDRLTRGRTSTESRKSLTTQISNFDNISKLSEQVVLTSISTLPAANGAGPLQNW
Procedure: (§1) Intracellular Calcium Measurements Using Division-arrested Cells (Table 1):
(§2) Test compounds are prepared as 10 mM stock solutions in DMSO, then serially diluted in half log concentrations with DMSO followed by dilution with assay buffer (HBSS (Sigma-Aldrich, H8264) containing 20 mM HEPES (Sigma-Aldrich, H4034), 0.1% (w/v) bovine serum albumin and adjusted to pH 7.4) to a top final assay concentration of 10 μM.
(§3) Human OX1 (CT-A474) and human OX2 (CT-A475) receptor-expressing division-arrested cells are plated into 384 well black, clear bottom, cell-bind plates at a seeding density of 10,000 cells/50 μL growth media. The seeded plates are incubated at 37° C. in air supplemented with 5% CO2 for 16 hrs.
(§4) The media is removed and replaced with 30 μL/well of cell loading buffer (a vial of Calcium 5 is solubilized in 22 mL of assay buffer to which a freshly prepared 250 mM solution of probenecid in 1:1 1M NaOH to assay buffer (200 μL) is added) and the cells incubated for 1 hr at 37° C. The serially diluted test compounds (10 μL/well) are added to the plate, which is then incubated for 10 mins and placed in a FlexStation III reader.

hOX1R [2] = target: T2, hOX1R (Homo sapiens, UniProt O43613); experiment: Intracellular calcium measurements using division-arrested cells, OX1; details: agonist orexin A at 2×EC50, * = single experiment, otherwise average of at least two, read-out: pIC50 OX1 (converted)
T2 sequence (O43613 1-425): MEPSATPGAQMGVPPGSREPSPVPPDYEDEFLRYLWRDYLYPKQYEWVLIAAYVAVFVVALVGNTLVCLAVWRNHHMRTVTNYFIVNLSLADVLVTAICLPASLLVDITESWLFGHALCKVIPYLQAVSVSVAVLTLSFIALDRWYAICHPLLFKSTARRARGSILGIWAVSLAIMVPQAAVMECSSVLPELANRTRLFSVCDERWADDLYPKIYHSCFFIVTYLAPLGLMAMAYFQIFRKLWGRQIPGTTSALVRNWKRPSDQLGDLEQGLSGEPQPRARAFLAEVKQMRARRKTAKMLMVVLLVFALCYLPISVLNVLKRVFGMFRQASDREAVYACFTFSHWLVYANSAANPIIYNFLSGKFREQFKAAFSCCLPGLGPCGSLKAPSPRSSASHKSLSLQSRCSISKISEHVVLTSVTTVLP
Procedure: as §1, §2, §3, §4

hOX1R [3] = target: T2, hOX1R; experiment: Intracellular calcium measurements using stable-replicating cells, Method B (CHO cells, FLIPR Tetra), OX1; details: orexin A at EC75, read-out: pIC50 OX1 (converted)
Procedure: (§5) Intracellular Calcium Measurements Using Stable-replicating Cells:
(§6) Human OX1 or human OX2 receptor expressing CHO cells are plated into 384 well black, clear bottom, CellBIND plates at a seeding density of 10,000 cells/75 μL growth media. The seeded plates are incubated at 37° C. in air supplemented with 5% CO2 overnight.
(§7) The next day media is removed and replaced with 30 μL/well of cell loading buffer (a vial of Calcium 5 is solubilized in 20 mL of assay buffer) and the cells incubated for 1 hr at 37° C. The serially diluted test compounds (10 μL/well) are added to the cell plate by the FLIPR Tetra and the addition is monitored for 5 mins by the instrument. The cell plate is then removed and incubated for additional 25 mins in a humidified incubator at […] prior to being placed back into the FLIPR Tetra. Finally 10 μL of orexin A in assay buffer +0.1% (w/v) bovine serum albumin is dispensed by the FLIPR Tetra at an EC75 concentration determined for each assay run. Fluorescence is measured at excitation and emission wavelengths of 485 nm and 525 nm respectively and data analyzed using GraphPad Prism for the EC75 value of orexin A and Aplus to determine an IC50 value for each test compound.

hOX2R [4] = target: T1, hOX2R; experiment: Intracellular calcium measurements using stable-replicating cells, Method B (CHO cells, FLIPR Tetra), OX2; details: orexin A at EC75, read-out: pIC50 OX2 (converted)
Procedure: as §5, §6, §7

Cc1nc(C(=O)N(C)[C@H](CNc2ccc(Cl)cn2)C(C)C)c(-c2ccccc2)s1 [Example 26, (S)—N-(1-((5-chloropyridin-2-yl)amino)-3-methylbutan-2-yl)-N,2-dimethyl-5-phenylthiazole-4-carboxamide]
IC50 (hOX2R [1]): 2 µM
IC50 (hOX1R [2]): 0.0316 µM

CC(C)[C@@H](CNc1ccc(Cl)cn1)N(C)C(=O)c1c(-c2ccccc2)[nH]c2ccccc12 [Example 27, (S)—N-(1-((5-chloropyridin-2-yl)amino)-3-methylbutan-2-yl)-N-methyl-2-phenyl-1H-indole-3-carboxamide]
IC50 (hOX2R [1]): 0.501 µM
IC50 (hOX1R [2]): 0.158 µM

CC(C)[C@@H](CNc1ccc(Cl)cn1)N(C)C(=O)c1ccccc1-n1nccn1 [Example 28, (S)—N-(1-((5-chloropyridin-2-yl)amino)-3-methylbutan-2-yl)-N-methyl-2-(2H-1,2,3-triazol-2-yl)benzamide]
IC50 (hOX2R [1]): > 10 µM
IC50 (hOX1R [2]): 0.2 µM

Cc1cc(C)nc(OC[C@H](C(C)C)N(C)C(=O)c2ccccc2-c2ccccc2)n1 [Example 30, (S)—N-(1-((4,6-dimethylpyrimidin-2-yl)oxy)-3-methylbutan-2-yl)-N-methyl-[1,1′-biphenyl]-2-carboxamide]
IC50 (hOX2R [1]): > 5.01 µM
IC50 (hOX1R [2]): 1.58 µM

CC(C)[C@@H](COc1ccc(Cl)cn1)N(C)C(=O)c1ccccc1-c1ccccc1 [Example 34, (S)—N-(1-((5-chloropyridin-2-yl)oxy)-3-methylbutan-2-yl)-N-methyl-[1,1′-biphenyl]-2-carboxamide]
IC50 (hOX2R [1]): > 3.16 µM
IC50 (hOX1R [2]): 0.2 µM

CC(C)[C@@H](CNc1nccc(-c2ccccc2)n1)N(C)C(=O)c1ccccc1-c1ccccc1 [Example 35, (S)—N-methyl-N-(3-methyl-1-((4-phenylpyrimidin-2-yl)amino)butan-2-yl)-[1,1′-biphenyl]-2-carboxamide]
IC50 (hOX2R [1]): 2 µM
IC50 (hOX1R [2]): 0.0794 µM

CC(C)[C@@H](CNc1nc2ccccc2n1C)N(C)C(=O)c1ccccc1-c1ccccc1 [Example 38, (S)—N-methyl-N-(3-methyl-1-((1-methyl-1H-benzo[d]imidazol-2-yl)amino)butan-2-yl)-[1,1′-biphenyl]-2-carboxamide]
IC50 (hOX2R [1]): > 3.98 µM
IC50 (hOX1R [2]): 0.0794 µM

CC[C@@H](CNc1cnc(C(F)(F)F)cn1)N(C)C(=O)c1cc(Cl)ccc1-n1nccn1 [Example 40, (S)-5-chloro-N-methyl-2-(2H-1,2,3-triazol-2-yl)-N-(1-((5-(trifluoromethyl)pyrazin-2-yl)amino)butan-2-yl)benzamide]
IC50 (hOX2R [1]): 2.51 µM
IC50 (hOX1R [2]): 0.0158 µM

CC[C@@H](CNc1ccc(C(F)(F)F)cn1)N(C)C(=O)c1nc(C)ccc1-n1nccn1 [Example 48, (S)—N,6-dimethyl-3-(2H-1,2,3-triazol-2-yl)-N-(1-((5-(trifluoromethyl)pyridin-2-yl)amino)butan-2-yl)picolinamide]
IC50 (hOX2R [1]): 2.51 µM
IC50 (hOX1R [2]): 0.0126 µM

Cc1cc(C(=O)N(C)[C@H](CNc2ccc(Cl)cn2)C(C)C)c2ccccc2n1 [Example 51, (S)—N-(1-((5-chloropyridin-2-yl)amino)-3-methylbutan-2-yl)-N,2-dimethylquinoline-4-carboxamide]
IC50 (hOX2R [1]): > 10 µM
IC50 (hOX1R [2]): 0.631 µM

CC(C)[C@@H](CNc1ccc(Cl)cn1)N(C)C(=O)c1ccccc1OC(F)(F)F [Example 52, (S)—N-(1-((5-chloropyridin-2-yl)amino)-3-methylbutan-2-yl)-N-methyl-2-(trifluoromethoxy)benzamide]
IC50 (hOX2R [1]): > 7.94 µM
IC50 (hOX1R [2]): 1 µM

CC[C@@H](CNc1ccc(C(F)(F)F)nc1)N(C)C(=O)c1cc(Cl)ccc1-n1nccn1 [Example 54, (S)-5-chloro-N-methyl-2-(2H-1,2,3-triazol-2-yl)-N-(1-((6-(trifluoromethyl)pyridin-3-yl)amino)butan-2-yl)benzamide]
IC50 (hOX2R [1]): 1.26 µM
IC50 (hOX1R [2]): 0.02 µM

CC(C)[C@@H](CNC(=O)c1ccc(F)cc1)N(C)C(=O)c1ccccc1-c1ccccc1 [Example 56, (S)—N-(1-(4-fluorobenzamido)-3-methylbutan-2-yl)-N-methyl-[1,1′-biphenyl]-2-carboxamide]
IC50 (hOX2R [1]): > 3.16 µM
IC50 (hOX1R [2]): 0.126 µM

CC(C)[C@@H](CNC(=O)Nc1ccccc1)N(C)C(=O)c1ccccc1-c1ccccc1 [Example 58, (S)—N-methyl-N-(3-methyl-1-(3-phenylureido)butan-2-yl)-[1,1′-biphenyl]-2-carboxamide]
IC50 (hOX2R [1]): > 5.01 µM
IC50 (hOX1R [2]): 0.126 µM

CC(C)[C@@H](CNc1ccc(Cl)cc1)N(C)C(=O)c1ccccc1-c1ccccc1 [Example 59, (S)—N-(1-((4-chlorophenyl)amino)-3-methylbutan-2-yl)-N-methyl-[1,1′-biphenyl]-2-carboxamide]
IC50 (hOX2R [1]): > 6.31 µM
IC50 (hOX1R [2]): 0.158 µM

Cc1ccc(-n2nccn2)c(C(=O)N(C)[C@H](CNc2cnc(C(F)(F)F)cn2)C(C)C)n1 [Example 67, (S)—N,6-dimethyl-N-(3-methyl-1-((5-(trifluoromethyl)pyrazin-2-yl)amino)butan-2-yl)-3-(2H-1,2,3-triazol-2-yl)picolinamide]
IC50 (hOX1R [3]): 0.00794 µM

CC[C@@H](CNc1cnc(C(F)(F)F)cn1)N(CC)C(=O)c1nc(C)ccc1-n1nccn1 [Example 70, (S)—N-ethyl-6-methyl-3-(2H-1,2,3-triazol-2-yl)-N-(1-((5-(trifluoromethyl)pyrazin-2-yl)amino)butan-2-yl)picolinamide]
IC50 (hOX1R [3]): 0.00158 µM

CC[C@@H](CNc1ncc2ccccc2n1)N(CC)C(=O)c1nc(C)ccc1-n1nccn1 [Example 72, (S)—N-ethyl-6-methyl-N-(1-(quinazolin-2-ylamino)butan-2-yl)-3-(2H-1,2,3-triazol-2-yl)picolinamide]
IC50 (hOX1R [3]): 0.00158 µM

CC[C@@H](CNc1ncc(C(F)(F)F)cn1)N(CC)C(=O)c1nc(C)ccc1-n1nccn1 [Example 73, (S)—N-ethyl-6-methyl-3-(2H-1,2,3-triazol-2-yl)-N-(1-((5-(trifluoromethyl)pyrimidin-2-yl)amino)butan-2-yl)picolinamide]
IC50 (hOX2R [4]): > 1 µM

CC[C@@H](CNc1ncc(C(F)(F)F)cn1)N(C)C(=O)c1nc(C)ccc1-c1ncccn1 [Example 84, (S)—N,6-dimethyl-3-(pyrimidin-2-yl)-N-(1-((5-(trifluoromethyl)pyrimidin-2-yl)amino)butan-2-yl)picolinamide formic acid salt]
IC50 (hOX1R [3]): 0.002 µM

CC[C@@H](CNc1ccc(Cl)cn1)N(C)C(=O)c1cc(OC)c(C)cc1-n1nccn1 [Example 87, (S)—N-(1-((5-chloropyridin-2-yl)amino)butan-2-yl)-5-methoxy-N,4-dimethyl-2-(2H-1,2,3-triazol-2-yl)benzamide]
IC50 (hOX1R [3]): 0.00398 µM

CC[C@@H](CNc1ncc(C(F)(F)F)cn1)N(C)C(=O)c1nc(OC)ccc1-n1nccn1 [Example 92, (S)-6-methoxy-N-methyl-3-(2H-1,2,3-triazol-2-yl)-N-(1-((5-(trifluoromethyl)pyrimidin-2-yl)amino)butan-2-yl)picolinamide]
IC50 (hOX1R [3]): 0.0316 µM

— patent US10611760B2, “Therapeutic compounds as inhibitors of the orexin-1 receptor” (C4X Discovery Limited, priority 2014, dated 2020)
